The values below come from patent US12036222B2, “Methods of treating cancers overexpressing CARM1 with EZH2 inhibitors and a PARP inhibitor” (The Wistar Institut of Anatomy and Biology, priority 2018, dated 2024).

For this assay, the system named is CARM1-expressing A1847 tumors. As to the kind of experiment: Subcutaneous xenograft model, CARM1-expressing A1847 cells. It is filed as in vivo, NSG mice. Particulars: 50 mg/kg daily i.p., three weeks. Here is the method:
The protocols were approved by the Institutional Animal Care and Use Committee (IACUC). 5×10^6 control A1847 or A1847 CARM1 knockout cells were unilaterally injected subcutaneously into 6-8-week old female immunocompromised NSG mice (n=5 per group). One week after injection the mice were randomized and treated with vehicle control (20% captisol) or GSK126 (50 mg/kg daily). Tumor size was measured every 3 days for 3 weeks. At end of the experiments, tumors were surgically dissected and tumor burden was calculated based on tumor weight.
EZH2 inhibitors, such as GSK126, are used safely in clinical trials for hematopoietic malignancies (Ribrag et al. Eur J Cancer (2014) 50:197). To determine the effects of EZH2 inhibition in vivo on the growth of CARM1-expressing ovarian tumors, two xenograft models were utilized. In the subcutaneous xenograft models, the injected CARM1-expressing A1847 cells were first allowed to grow for one week to establish the tumors. Mice were then randomized and treated daily with vehicle control or GSK126 (50 mg/kg) by intraperitioneal (i.p.) injection as reported (see, e.g., Bitler et al. Nature Medicine (2015) 21:231-8 and McCabe et al. Nature (2012) 492:108-12). […] To more closely mimic the tumor microenvironment, A1847 cells were orthotopically transplanted into the bursa covering the ovary of immunocompromised NSG mice. […]

For `CC[C@H](C)n1cc(C)c2c(C(=O)NCc3c(C)cc(C)[nH]c3=O)cc(-c3ccc(N4CCNCC4)nc3)cc21` [GSK126, (S)-1-(sec-butyl)-N-((4,6-dimethyl-2-oxo-1,2-dihydropyridin-3-yl)methyl)-3-methyl-6-(6-(piperazin-1-yl)pyridin-3-yl)-1H-indole-4-carboxamide], the “growth of CARM1-expressing tumors” value was “significantly inhibited the growth”.
